Assays:
obelin (OL_wt) = molecular target: T1, obelin (OL_wt) (Obelia longissima, UniProt Q27709); experiment: Ca2+-triggered bioluminescence of charged photoprotein, luminometer; assay type: biochemical; details: 2 mM CaCl2, 50 mM Tris-HCl pH 8.5, 23 C; bound as 2-hydroperoxycoelenterazine
T1 construct: full-length apo-obelin from pET19-OL8 in E. coli BL21-Gold (DE3) Codon Plus (RIPL), charged with coelenterazine; 195 residues

aequorin (AV_wt) = molecular target: T2, aequorin (AV_wt) (Aequorea victoria, UniProt P07164); experiment: as above; assay type: biochemical; details: 2 mM CaCl2, 50 mM Tris-HCl pH 8.5, 23 C; bound as 2-hydroperoxycoelenterazine
T2 construct: apo-aequorin with N-terminus truncated by six residues, from pET22-A7 in E. coli BL21-Gold (DE3) Codon Plus (RIPL), charged with coelenterazine
T2 sequence (P07164 7-196 limits assumed): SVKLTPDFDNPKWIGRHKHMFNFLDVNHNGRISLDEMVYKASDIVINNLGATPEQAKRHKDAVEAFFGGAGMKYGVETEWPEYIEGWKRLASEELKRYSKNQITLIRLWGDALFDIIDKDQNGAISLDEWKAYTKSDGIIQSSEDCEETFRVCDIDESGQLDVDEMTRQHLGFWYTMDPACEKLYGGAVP

T1 sequence (Q27709 whole entry): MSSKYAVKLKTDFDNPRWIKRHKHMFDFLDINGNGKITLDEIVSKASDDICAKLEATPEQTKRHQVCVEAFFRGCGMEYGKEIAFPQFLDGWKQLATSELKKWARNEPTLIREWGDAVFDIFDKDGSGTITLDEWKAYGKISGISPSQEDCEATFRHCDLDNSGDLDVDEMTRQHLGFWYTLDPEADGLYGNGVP

## Oc1ccc(Cc2nc3c(Cc4ccccc4)nc(-c4ccc(O)cc4)cn3c2O)cc1 [coelenterazine]
Obelin (OL_wt)
  Ca2+-triggered bioluminescence of charged photoprotein, luminometer: Obelin and aequorin as well as their mutants were purified and activated with coelenterazine
Aequorin (AV_wt)
  Ca2+-triggered bioluminescence of charged photoprotein, luminometer: Obelin and aequorin as well as their mutants were purified and activated with coelenterazine
